In ChEMBL document CHEMBL1125993, “The function of S1 subsite pocket of carboxypeptidase A” (Bioorg Med Chem Lett, 1991):

Target: T1, Carboxypeptidase A1 (Bos taurus, UniProt P00730)
T1 sequence (P00730 whole entry): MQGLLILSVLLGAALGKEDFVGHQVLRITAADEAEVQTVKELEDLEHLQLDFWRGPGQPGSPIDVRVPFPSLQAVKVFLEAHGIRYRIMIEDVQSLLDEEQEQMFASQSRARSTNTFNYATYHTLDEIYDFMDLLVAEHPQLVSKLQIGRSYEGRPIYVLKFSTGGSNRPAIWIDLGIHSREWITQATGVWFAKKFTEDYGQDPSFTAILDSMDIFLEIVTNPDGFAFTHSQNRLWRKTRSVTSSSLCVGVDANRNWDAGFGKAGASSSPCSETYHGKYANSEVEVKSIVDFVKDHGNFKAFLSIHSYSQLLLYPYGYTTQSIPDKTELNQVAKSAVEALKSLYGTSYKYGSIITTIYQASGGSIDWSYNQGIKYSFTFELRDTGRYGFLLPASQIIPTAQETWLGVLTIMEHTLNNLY
Experiment: Compound was evaluated for binding affinity against carboxypeptidase A (CPA), expressed as inhibitory constant (Ki)

Row | Ki | SMILES
1 | 150 nM | O=C(O)C(CS)Cc1ccc(Br)cc1 (centres undefined)
2 | 160 nM | O=C(O)C(CS)Cc1ccc(Cl)cc1 (centres undefined)
3 | 105 nM | CC(c1ccccc1)C(CS)C(=O)O (centres undefined)
4 | 1500 nM | CCC(c1ccccc1)C(CS)C(=O)O (centres undefined)
